Where two headings read alike, the source gives them in different places.
Key:
[1] = test system: delayed type hypersensitivity (picryl chloride induced foot pad swelling); test: Murine delayed type hypersensitivity (DTH) response, picryl chloride; format: in vivo, mouse (Balb/c); details: for inhibition of DTH response: FIG. 8 legend
Procedure: The activity of ergoline compounds was also evaluated in a murine delayed-type hypersensitivity (DTH) assay. The DTH assay was performed in substantial accordance with the method set forth in Example 1. Briefly, mice were sensitized by topical administration of picryl chloride on day 1 of the assay. On day 4 paw size was determined and recorded and the paw was then challenged with picryl chloride. The challenged paw was remeasured on day 5 to quantitate the DTH response via the increase in paw size.
(§1) Male Balb/c mice (Charles River) weighing 20 to 25 g were used in all DTH studies. When adrenalectomized studies were carried out, sham surgery and adrenalectomized mice were obtained from the vendor. Animals were maintained on a 12:12 hour light:dark cycle. Mice were allowed ad lib access for food (Purina lab chow) and water (normal saline for adrenalectomized animals).
(§2) A DTH response was assessed by measuring the degree of rear foot pad swelling induced by picryl chloride. On day 0, mice were sensitized with 100 μl of 5% picryl chloride (in ethanol), which was applied to a shaved abdomen. Negative control groups were shaved but not sensitized. On day 3, mice were anesthetized with methoxyflurane, and the baseline rear foot pad thickness was measured with a micrometer (Mitutoyo) in μ, and was recorded in duplicate. Fifty μl of picryl chloride was then applied to each pad with a pipet (Rainen) while the animal was unconscious. The negative controls also received picryl chloride at this point to control for primary irritancy. Twenty-four hours later, the mice were sacrificed by CO2 asphyxiation and each rear foot pad was again measured in duplicate, and any evidence of foot pad swelling was calculated. The mean rear foot swelling change of both pads for each animal from days 3 to 4 was used as the index of immune function in the DTH assay.
(§3) Unless otherwise stated all animals were given four subcutaneous doses of test compound just prior to picryl chloride sensitization on day 0, on day 1 and day 2, and just prior to picryl chloride challenge on day 3. In a few experiments, compounds were administered via oral or intraperitoneal routes. All drugs were delivered as suspensions in 1% carboxy-methylcellulose (also contained 0.8% NaCl, 1% polysorbate-80, 1.4% benzyl alcohol). Carboxymethyl-cellulose (1%) was used in control injections.

[2] = test system: carrageenan induced paw swelling; test: Carrageenan edema model (acute paw inflammation); format: in vivo, rat (Lewis)
[3] = test system: D-2 dopamine; details: background; cited from earlier work
[4] = test system: α adrenergic receptors; details: background; cited from earlier work
[5] = test system: inflammatory models; details: cited from earlier work
[6] = test system: lipoidal amine induced arthritis; test: Lipoidal amine induced polyarthritis (hind paw volume and weight); format: in vivo, rat (Lewis); details: Rattus norvegicus
Procedure: Lipoidal amine induced polyarthritis is an animal arthritis model originally described by Chang, Y., et al. in Arthritis and Rheumatism 23:62-71 (1980). The lipoidal amine induced polyarthritis results from injection of N,N-dioctadecyl-N^1,N-bis(2-hydroxyethyl) propanediamine (7.5 mg/kg Lewis rat (220-225 g)), which is suspended in oil, intradermally at the base of the tail.

[7] = test system: 5-HT induced paw swelling; test: Serotonin (5-HT) induced acute paw inflammation; format: in vivo, rat (Lewis); details: FIG. 2
Procedure: In one such model, the acute paw inflammation model, rats were treated with test compounds one hour prior to plantar injection of a 50 μl volume of a phlogistic. Animals were sacrificed and paw weights were determined at a prescribed time interval following the plantar injections. When 1% carrageenan was used as the phlogistic, the time interval between injection and sacrifice was 3 hours. When serotonin (5-hydroxytryptamine (5-HT)) was used, as the phlogistic agent the time interval was one hour. When substance P was used, the time interval was 30 minutes. The acute paw inflammation model is described in more detail in Example 3.
Male Lewis rats (Charles River or Harlan Sprague Dawley) weighing 180 to 250 g were used in all acute inflammatory studies. Animals were maintained on a 12:12 hour light:dark cycle and were allowed ad lib access for food (Purina lab chow) and water. Experimental groups consisted of 5 or 6 rats.
Acute paw swelling was induced by the intraplantar injection of phlogistic agents into the left hind paw, with the uninjected right hind paw serving as the comparative control. One hour after dosing with test compound, 50 μl of serotonin (Sigma; 0.005 to 0.2 mg/ml in normal saline) or substance P (Sigma; 0.01 or 0.05 mg/ml in 10% thiorphan in normal saline) or carrageenan (Marine Colloidal or Sigma Type IV; 1% in normal saline) were injected under the skin of the left hind paw, while the animal was restrained in a plastic cone. Negative controls were given 50 μl intradermal injections of normal saline (serotonin or carrageenan assays) or 10% thiorphan (substance P assays) into the left hind paw. One hour following injection of serotonin, or 30 minutes following injection of substance P, or 180 minutes following injection of carrageenan, the animals were sacrificed by CO2 asphyxiation. The right and left hind paws were cut just proximal to the tibiotarsal joint and weighed. The difference in weight between an individual animal's left and right paws were used as an indicator of tissue swelling.
As indicated above, test compounds are administered as a one hour pretreatment. In one series of experiments, 24 hour and 48 hour drug pretreatment periods were used. Test compounds were dosed intraperitoneally as a suspension in 1% carboxymethylcellulose.

[8] = test system: Parkinsonism; details: background; cited from earlier work
[9] = test system: corticosterone; test: Serum/plasma corticosterone levels in mice; format: in vivo, mouse (Balb/C); details: FIG. 10 Panel A; 1 and 3 hr. following injection
Source text: Dopamine agonists are known to elevate circulating glucocorticoid levels, via activation of the hypothalamo-pituitary-adrenal axis. […] Since glucocorticoids are potential endogenous anti-inflammatory substances, this action is one potential mechanism for the anti-inflammatory effect of the ergolines. However, in subsequent inflammation studies, the anti-inflammatory effects of D-1-isopropyl-6-n-propyl-8β-methylthiomethyl ergoline were retained in mice lacking an adrenal gland and therefore devoid of the increase in circulating corticosterone. (FIG. 10B)
Both Balb/C mice (male, approximately 20 g, Charles Rivers) and Lewis rats (male, approximately 200 g, Charles River or Harlan Sprague Dawley) were used in neuroendocrine studies. Animals were maintained on a 12:12 hour light:dark cycle and were allowed ad lib access for food (Purina lab chow) and water. Experimental groups consisted of 6 to 8 animals.
After dosing with test compounds, animals were sacrificed by decapitation at 1, 3, 8 or 24 hour intervals. Trunk blood was collected, allowed to clot and serum obtained after centrifugation (3000 rpm for 15 min.). Serum was aliquoted and stored at -70° C. for subsequent radioimmunoassays. Serum prolactin was determined by radioimmunoassay. Serum corticosterone levels were determined with a kit designed for such determinations and obtained from ICN.

[10] = test system: dopamine receptor; test: Affinity at the dopamine receptor; format: binding
[11] = test system: dopamine receptor (DTH response); test: Reversal of DTH inhibition by dopamine receptor antagonists; format: in vivo, mouse
Procedure: as §1, §2, §3

[12] = Table 2, single oral dose 0.1 mg/kg
[13] = Table 2, single oral dose 0.3 mg/kg
[14] = Table 2, single oral dose 1.0 mg/kg
[15] = Table 2, single oral dose 3.0 mg/kg
[16] = Table 1, single oral dose 0.3 mg/kg
[17] = Table 1, single oral dose 1.0 mg/kg
[18] = Table 1, single oral dose 3.0 mg/kg
[19] = Table 1, single oral dose 10.0 mg/kg
[20] = Table 2, single oral dose 0.01 mg/kg
[21] = Table 2, single oral dose 0.03 mg/kg
[22] = Table 1, single oral dose 30.0 mg/kg
[23] = Table 2, single oral dose 30.0 mg/kg

CCCN1CCC[C@H]2Cc3nc(N)sc3C[C@@H]21 (racemic) [Compound 6, trans-(±)-2-amino-5-n-propyl-4,4a,5,6,7,8,8a,9-octahydrothiazolo [4,5-g] quinoline]
reduction of paw swelling (DTH) ([1]; 10 mg/kg): statistically significant

CCCN1CCC[C@H]2Cc3nc(N)ncc3C[C@@H]21 (racemic) [Compound 8, trans-(±)-2-amino-6-n-propyl-5,5a,6,7,8,9,9a,10-octahydropyrimido[4,5-g] quinoline]
reduction of paw swelling (DTH) ([1]; 1 mg/kg): statistically significant decrease in inflammation
inhibition of DTH response [1]: lack of inhibition

CCCN1CCC[C@H]2Cc3nc(N)ccc3C[C@@H]21 (relative stereo) [Compound 7, trans-(±)-2-amino-6-propyl-5,5a,6,7,8,9,9a,10-octahydropyrido [2-3 g] quinoline]
reduction of paw swelling (DTH) ([1]; 10 mg/kg): statistically significant

CCCN1CC(CO)=C[C@H]2Cc3n[nH]cc3C[C@@H]21 (relative stereo) [Compound 9, 7-(5-n-propyl-trans-4,4a,5,6,8a,9-hexahydro-2H-pyrazolo[3,4-g)quinoline) methanol]
reduction of paw swelling (DTH) ([1]; 3 mg/kg): statistically significant
reduction of paw swelling (DTH) ([1]; 10 mg/kg): statistically significant
inhibition of DTH response [1]: inhibition

CC(C)CC1C(=O)N2CCCC2C2(O)OC(NC(=O)C3C=C4c5cccc6[nH]c(Br)c(c56)CC4N(C)C3)(C(C)C)C(=O)N12 (stereo not drawn) [Bromocriptine, α-bromo-ergocryptine]
% Inhibition [2, 12]: 0%
Paw Weight Difference [2, 12]: 0.923 ± 0.039 g
% Inhibition [2, 13]: 0%
Paw Weight Difference [2, 13]: 0.937 ± 0.060 g
% Inhibition [2, 14]: 0%
Paw Weight Difference [2, 14]: 0.803 ± 0.046 g
% Inhibition [2, 15]: 0%
Paw Weight Difference [2, 15]: 0.931 ± 0.067 g
activity in the acute inflammation model ([2]; doses as high as 3 mg/kg, po): no activity
D-2 dopamine agonist activity [3]: D-2 dopamine agonists
action at α adrenergic receptors [4]: act at α adrenergic receptors
basis of activity in inflammatory models of the literature [5]: due to immunosuppressive activity

CCCN1C[C@H](CSC)C[C@@H]2c3cccc4[nH]cc(c34)C[C@H]21 [Compound 2]
minimal effective dose ([6]; read-out: dosage giving statistically significant decrease in paw volume, FIG. 1 Panel A): ≥ 3 mg/kg
minimal effective dose ([6]; read-out: dosage giving statistically significant decrease in paw weight, FIG. 1 Panel B): ≥ 3 mg/kg
% Inhibition [2, 16]: 60%
Paw Weight Difference [2, 16]: 0.290 ± 0.028 g
% Inhibition [2, 17]: 60%
Paw Weight Difference [2, 17]: 0.295 ± 0.019 g
% Inhibition [2, 18]: 60%
Paw Weight Difference [2, 18]: 0.292 ± 0.017 g
% Inhibition [2, 19]: 60%
Paw Weight Difference [2, 19]: 0.293 ± 0.018 g
% Inhibition [2, 20]: 1%
Paw Weight Difference [2, 20]: 0.820 ± 0.033 g
% Inhibition [2, 21]: 0%
Paw Weight Difference [2, 21]: 1.009 ± 0.056 g
% Inhibition [2, 12]: 11%
Paw Weight Difference [2, 12]: 0.751 ± 0.045 g
% Inhibition [2, 13]: 63%
Paw Weight Difference [2, 13]: 0.313 ± 0.045 g
anti-inflammatory properties ([2]; Tables 1 and 2): significant anti-inflammatory properties
effect on 5-HT induced paw swelling [7]: diminish 5-HT induced paw swelling
reduction of paw swelling (DTH) ([1]; 1 mg/kg): significantly reduced paw swelling
reduction of paw swelling (DTH) ([1]; 3 mg/kg): significantly reduced paw swelling
reduction of paw swelling (DTH) ([1]; 10 mg/kg): significantly reduced paw swelling
D-2 dopamine agonist activity [3]: D-2 dopamine agonists
action at α adrenergic receptors [4]: act at α adrenergic receptors
effect on symptoms of Parkinsonism [8]: effective in the treatment of some symptoms of Parkinsonism

CCCN1C[C@H](CSC)C[C@@H]2c3cccc4[nH]nc(c34)C[C@H]21 [Compound 4, D-2-aza-6-n-propyl-8β-methylthiomethyl ergoline]
reduction of paw swelling (DTH) ([1]; 1 mg/kg): reduced paw swelling
reduction of paw swelling (DTH) ([1]; 3 mg/kg): statistically significant
reduction of paw swelling (DTH) ([1]; 10 mg/kg): statistically significant

CCCN1CC(CO)CC2Cc3n[nH]cc3CC21 (stereo not drawn) [Compound 10, 7-(5-n-propyl-trans-4,4a,5,6,7,8,8a, 9-Octahydro-2H-pyrazolo[3,4-g]quinoline) methanol]
reduction of paw swelling (DTH) ([1]; 3 mg/kg): statistically significant
reduction of paw swelling (DTH) ([1]; 10 mg/kg): statistically significant
effect on plasma corticosterone [9]: increase plasma cortiosterone

CCCCCN1C[C@H](CSC)C[C@@H]2c3cccc4[nH]cc(c34)C[C@H]21 [D-6-n-pentyl-8β-methylthiomethyl ergoline]
anti-inflammatory activity ([1]; FIGS. 7-9A studies): no anti-inflammatory activity
affinity at the dopamine receptor [10]: minimal affinity

O=c1[nH]c2ccccc2n1CCCN1CCC(n2c(=O)[nH]c3cc(Cl)ccc32)CC1 [Domperidone]
effect on anti-inflammatory activity of D-1-isopropyl-6-n-propyl-8β-methylthiomethyl ergoline ([11]; FIG. 9 Panel B): reversed the anti-inflammatory activity

CC(C(=O)O)c1cccc(Oc2ccccc2)c1 (stereo not drawn) [Fenoprofen]
effectiveness in suppressing inflammation compared with pergolide ([2]; 30 mg/kg): not as effective as pergolide
% Inhibition [2, 22]: 52%
Paw Weight Difference [2, 22]: 0.353 ± 0.043 g
% Inhibition [2, 23]: 55%
Paw Weight Difference [2, 23]: 0.379 ± 0.028 g

CCN1CCCC1CNC(=O)c1cc(S(N)(=O)=O)ccc1OC (stereo not drawn) [Sulpiride]
effect on inflammatory response in animals given 10 mg/kg of compound 10 ([11]; FIG. 9 Panel C, sulpiride 3, 10 and 30 mg/kg): partially restored the inflammatory response

— US5416090A, “Method of treating inflammation” (priority 1992, dated 1995)
